“Also recorded” adds a separate entry of the source.
Legend:
[1] = system: A549 lung cancer cells; test: Colony formation assay, alone or in combination with cisplatin
[2] = system: KG-1 leukemia cells; test: KG-1 cell survival and proliferation (trypan blue counts), alone or with VP-16; format: cell-based, human; conditions: KG-1 cells
From the text: KG-1 cells are a human acute myeloid leukemia cell line established from a patient with acute myelogenous leukemia that had evolved from an erythroleukemia. Cytotoxicity of etoposide, a semisynthetic derivative of podophyllotoxin that also is called Vepesid (Bristol; code designation VP-16-213, abbreviated VP-16), is mediated by its interaction with DNA topoisomerase II (Topo II), an ATP-dependent nuclear enzyme that regulates DNA topology by transiently breaking and rejoining double-stranded DNA to allow DNA strand passage. Under normal conditions, the formation of a DNA strand break by Topo II is followed by precise realignment and resealing of the broken ends.
The human myeloid cell line KG-1 was grown in RPMI1640 with 10% FBS. The small cell lung cancer cell line CRL5898 was grown in HITES medium (Dulbecco's medium:Ham's F12, 50:50 mix, Insulin 0.005 mg/ml Transferrin 0.01 mg/ml Sodium selenite 30 nM Hydrocortisone 10 nM beta-estradiol 10 nM HEPES 10 mM L-glutamine 2 mM (in addition to that in the base medium)). Both cell lines were seeded at 10,000 cells/ml in the appropriate medium in 6 well plates. The Chem Div compounds were resuspended as 5 mM stock solutions in DMSO. […] Cells were plated and treated in triplicate and counted daily for 4 days in trypan blue to assess survival and proliferation.

[3] = system: Raji leukemia cells; test: Cytotoxicity / proliferation at varying concentrations vs vehicle control; format: cell-based
Procedure: (§1) In separate experiments, the bifunctional Metnase inhibitor, 4h-new3 (see FIGS. 4 and 43) and the monofunctional Metnase inhibitor 4h (FIG. 1 and FIG. 43), were tested at varying concentrations to determine cytotoxic activity in Raji leukemia eels and MCI-H929 myeloma cells. The compounds were tested against vehicle control at varying concentrations in the above-described cancer cell lines.

[4] = system: NCI-H929 myeloma cells; test: as above; format: cell-based
Procedure: as §1

[5] = A549, compound present for 24 hours at the beginning then removed
[6] = A549, compound constantly present, cisplatin present for a shorter period

Question: How did the “cytotoxicity of compound compared with cisplatin” value ([1]; A549, compound present 24 hours, cisplatin at higher concentration, shorter period) turn out when `O=C(O)c1cn(C2CC2)c2cc(N3CCN(C(=O)CCCc4ccc(N(CCCl)CCCl)cc4)CC3)c(F)cc2c1=O` [WW-10] was run?
Answer: The value was “greater colony forming cell cytotoxicity than did cisplatin present at a higher concentration”.

Question: What about the “effect against colony survival, compound alone” value [1, 5] of the same compound?
Answer: Its value is “significant dose dependent effect against colony survival”.

Question: And the “effect against colony survival, in combination with cisplatin” value [1, 5]?
Answer: The value was “especially active in combination with cisplatin at higher concentrations; also recorded: significant dose dependent effect against colony survival”.

Question: How did the “cytotoxicity of compound compared with cisplatin” value [1, 6] turn out when `Cn1c(CCCC(=O)N2CCN(c3cc4c(cc3F)c(=O)c(C(=O)O)cn4C3CC3)CC2)nc2cc(N(CCCl)CCCl)ccc21` [WW-01] was run?
Answer: The value was “significantly greater activity than cisplatin”.

Question: And the “effect against colony survival, in combination with cisplatin” value [1, 6]?
Answer: Its value is “especially active in combination with cisplatin at higher concentrations”.

Question: With `CC(C)n1cc(C(=O)O)c(=O)c2ccccc21` [5483-0023] as the compound, how does the “cytotoxic activity / proliferation, compound on its own” value ([2]; compound alone) read?
Answer: The value was “has cytotoxic activity on its own; also recorded: Decreases Proliferation of KG-1 Cells on its Own”.

Question: What about the “potentiation of cytotoxic activity of VP-16” value ([2]; in combination with VP-16) of the same compound?
Answer: Its value is “increases the cytotoxic activity of the anti-cancer drug VP-16; also recorded: Potentiates VP-16”.

Question: `CC(C)n1cc(C(=O)O)c(=O)c2ccc(C(=O)c3ccc(CN(CCCl)CCCl)cc3)cc21` [4H_new3] was tested. Which “level at which proliferation is decreased” value [3] did it give?
Answer: The value was “below 1 μM”.

Question: What about the “decrease of cancer cell proliferation compared with monofunctional inhibitor 4h” value ([3]; varying concentrations) of the same compound?
Answer: Its value is “significantly more effective at decreasing cancer cell proliferation”.

Question: What about the “level at which proliferation is decreased” value [4] of the same compound?
Answer: Its value is “below 1 μM”.

Question: And the “decrease of cancer cell proliferation compared with monofunctional inhibitor 4h” value ([4]; varying concentrations)?
Answer: Its value is “significantly more effective at decreasing cancer cell proliferation”.
